# Data as given in patent US6617118B2, “Monoclonal antibody for analysis and clearance of polyethylene glycol and polyethylene glycol-modified molecules” (priority 1999, dated 2003).
# Tests used:
# [1] = test system: LS174T cells; test: Drug sensitivity of LS174T cells ([3H]-leucine incorporation); conditions: BHAMG plus 1 μg/well βG, 24 h
# Protocol: Drug sensitivity of LS174T cells: LS174T cells were plated overnight in 96 well microtiter plates at 40,000 cells per well. […] Cells were subsequently washed once with sterile PBS, incubated until hour 48 in fresh leucine-free medium and then pulsed for 12 h with [^3H]-leucine (1 μCi/well) in fresh medium and harvested with a Filter-mate (Packard). Incorporated radioactivity was determined on a Top-Count scintillation counter (Packard). Results are expressed as percentage inhibition of [^3H]-leucine incorporation compared with untreated cells (control) by the following formula: [formula]
# The cellular protein synthesis rate of drug-treated cells is compared to untreated control cells. Bars indicate the standard error of triplicate determinations.
# [2] = Toxicity of clearance and BHAMG prodrug administration; format: in vivo, BALB/c mice; conditions: AGP3 and 15 mg/kg BHAMG, no βG-sPEG
# Protocol: Toxicity of Clearance: The numbers of WBC, RBC, and PLT in groups of 6 BALB/c mice were measured as described (Chen et al., 1997) 1 day before i.v. injection of 50 μg of βG-PEG or PBS. […] On day 8, the numbers of WBC, RBC, and PLT in […] samples were determined. On days 3 and 10, the spleen, liver and kidney were removed from one mouse in each group and fixed in 10% formalin. Ethanol dehydrated samples were embedded in paraffin and cut into 3 μm sections. Sections were then dewaxed with xylene, stained with hematoxylin/eosin, and dehydrated before observation under a light microscope. The weight of mice was followed for 18 days.
# One concern of employing IgM to clear proteins is that the immune complexes could be deposited in organs and cause tissue damage. In addition, deposition of βG-PEG on the surface of cells could result in prodrug activation and tissue toxicity. […] Mice were injected with PBS (A-C) or βG-sPEG (D-F) on day 1. […] Tissue sections of liver (A, D), kidney (B, E), and spleen (C, F) recovered 10 days later were stained with hematoxylin and eosin. […] Similarly, no tissue damage was observed 3 days after prodrug administration (results not shown).
# Groups of 4 mice were i.v. injected at time zero with PBS (control) or βG-sPEG. […] Six hours later, all mice were i.v. injected with BHAMG. […]
# [3] = test system: LS174T tumor xenografts; test: Therapy of LS174T tumor xenografts
# Protocol: Therapy of LS174T Tumor Xenografts: Groups of 9 BALB/c nu/nu mice were s.c. injected on the right flank with 5×10^6 LS174T cells on day 1. […] 48 and 50 h later mice were i.v. injected with 2 sequential doses of 300 and 200 μg AGP3. […] Therapy was repeated starting on days 16, 26, and 41. All mice received 2-4 rounds of therapy. Tumor volumes (length×width×height×0.5) were measured twice a week and mice weight was followed as an estimate of treatment toxicity. […] Groups of 8 BALB/c nu/nu mice bearing larger 200-250 mm^3 tumors were also treated as above with 2 rounds of therapy starting on days 11 and 23.
# Therapy was repeated starting on days 16, 26 and 41. […] Bars indicate the standard error of the mean. […] Soluble IgM immune complexes are primarily removed from the circulation and catabolized by the mononuclear phagocyte system in the liver, spleen and lungs by receptor-mediated binding of high mannose oligosaccharides exposed upon conformational changes in IgM induced by antigen binding (Day et al., 1980).
smiles,measurement,setting,value
O=C(O)[C@H]1O[C@@H](Oc2ccc(N(CCCl)CCCl)cc2)[C@H](O)[C@@H](O)[C@@H]1O [BHAMG],cytotoxic effect with simultaneous addition of βG,[1],cytotoxic effect equal to pHAM alone
same,"weight of mice, control group",[2],only a small transient decrease
same,Weight loss %,[3]; Round of therapy 1,1.7%
same,Weight loss %,[3]; Round of therapy 2,4.0%
same,Weight loss %,[3]; Round of therapy 3,1.7%
